The results in this text go back to patent publication US20100075965A1, “PI3 KINASE INHIBITORS AND METHODS OF THEIR USE” (Novartis AG, priority 2006, published 2010).

Some results are limits rather than exact numbers.

In assay [1] the test system is pSer473-Akt in A2780 cells. As to the kind of experiment: pSer473 Akt assay to monitor PI3K pathway in A2780 cells (MSD). In kind it is cell-based. As to conditions: Homo sapiens; A2780 cells; read-out: A2780 pAKT 473 EC50. A digest of the protocol:
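EC50 is derived from percent inhibition of Akt Ser473 phosphorylation, normalised to total Akt and compared with DMSO-only wells, read by MSD immunoassay. Lysates came from A2780 cells plated overnight at 15,000/well and exposed to compound for one hour at 37 °C.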

Assay [2] has as its system subcutaneous A2780 ovarian xenograft tumors. Description: A2780 human ovarian xenograft model in nude mice. It is filed as in vivo. As to conditions: 30 mg/kg daily p.o., day 6, p<0.001 vs vehicle (ANOVA). The protocol: Female nude mice (6-8 weeks of age; Charles River) were implanted subcutaneously with A2780 (5×10^6 cells/mouse in 0.1 ml HBSS) cells into the right flank. […] Tumor volumes were measured (SE is the standard error of the mean).
Tumors from mice treated with vehicle were also harvested as controls.

For `CC(=O)Nc1cn2cc(-c3cnc(N)c(OC(C)C(F)(F)F)n3)ccc2n1` (centres unmarked) [Example 57, N-(6-(5-amino-6-(1,1,1-trifluoropropan-2-yloxy)pyrazin-2-yl)imidazo[1,2-a]pyridin-2-yl)acetamide], the EC50 in assay [1] is under 1000 nM. Besides, the tumor growth inhibition in assay [2] was 79%.
